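Briefly, cells in 96-well plates were exposed to five compound concentrations for 48 h, and endpoints were estimated by linear interpolation. Definition used: TGI = concentration required for complete inhibition of growth.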
What was measured:
Test in all cases: growth of human tumour cells (NCI), 48 h
[1] = test system: HL-60(TB) leukemia
[2] = test system: HOP-62 NSCLC
[3] = test system: SK-OV-3 ovarian
[4] = test system: UO-31 renal
[5] = test system: 786-0 renal
[6] = test system: SNB-19 CNS
[7] = test system: SN12C renal
[8] = test system: MDA-N
[9] = test system: DU-145 prostate
[10] = test system: NCI-H522 lung
[11] = test system: OVCAR-5 ovarian
[12] = test system: HCT-15 colon
[13] = test system: KM12 colon
[14] = test system: HOP-92 NSCLC
[15] = test system: PC-3 prostate
[16] = test system: MALME-3M melanoma
[17] = test system: HS 578T breast
[18] = test system: NCI-H23 lung
[19] = test system: NCI-H460 lung
[20] = test system: EKVX NSCLC
[21] = test system: SR leukemia
[22] = test system: RPMI-8226 leukemia
[23] = test system: CAKI-1 renal
[24] = test system: NCI/ADR-RES ovarian
[25] = test system: U251 CNS
[26] = test system: SK-MEL-5 melanoma
[27] = test system: HCT-116 colon
[28] = test system: HT29 colon
[29] = test system: UACC-257 melanoma
[30] = test system: A549 NSCLC
[31] = test system: OVCAR-8 ovarian
[32] = test system: MOLT-4 leukemia
[33] = test system: K-562 leukemia
[34] = test system: IGROV1 ovarian
[35] = test system: ACHN renal
[36] = test system: COLO 205 colon
[37] = test system: OVCAR-3 ovarian
[38] = test system: CCRF-CEM leukemia
[39] = test system: LOX IMVI melanoma
[40] = test system: NCI-H226 lung
[41] = test system: TK-10 renal
[42] = test system: SF-268 CNS
[43] = test system: SNB-75 CNS
[44] = test system: SW-620 colon
[45] = test system: OVCAR-4 ovarian
[46] = test system: MCF7 breast
[47] = test system: BT-549 breast
[48] = test system: SF-295 CNS
[49] = test system: M14 melanoma

SMILES: C=C1CCC([N+](=O)[O-])[C@](C)(N=O)CC[C@@H]2C1CC2(C)C (some centres undefined)
- TGI [1]: > 100 µM
- TGI [2]: > 100 µM
- TGI [3]: > 100 µM
- TGI [4]: 31.7 µM
- TGI [5]: 42.6 µM
- TGI [6]: 77.9 µM
- TGI [7]: > 100 µM
- TGI [8]: > 100 µM
- TGI [9]: > 100 µM
- TGI [10]: 49.1 µM
- TGI [11]: 36.1 µM
- TGI [12]: 65.4 µM
- TGI [13]: 65.5 µM
- TGI [14]: 44.9 µM
- TGI [15]: > 100 µM
- TGI [16]: 49.5 µM
- TGI [17]: 39 µM
- TGI [18]: 33.3 µM
- TGI [19]: 39.6 µM
- TGI [20]: 40.4 µM
- TGI [21]: > 100 µM
- TGI [22]: > 100 µM
- TGI [23]: > 100 µM
- TGI [24]: 82 µM
- TGI [25]: 48.2 µM
- TGI [26]: 28.6 µM
- TGI [27]: 32.1 µM
- TGI [28]: 45.4 µM
- TGI [29]: 46.2 µM
- TGI [30]: 36 µM
- TGI [31]: 48 µM
- TGI [32]: > 100 µM
- TGI [33]: 79.1 µM
- TGI [34]: 59.1 µM
- TGI [35]: > 100 µM
- TGI [36]: 60.5 µM
- TGI [37]: 56.3 µM
- TGI [38]: > 100 µM
- TGI [39]: 41.7 µM
- TGI [40]: 30.9 µM
- TGI [41]: 76.1 µM
- TGI [42]: > 100 µM
- TGI [43]: 45.3 µM
- TGI [44]: 47.2 µM
- TGI [45]: 84.6 µM
- TGI [46]: 39.6 µM
- TGI [47]: 37.1 µM
- TGI [48]: 37.6 µM
- TGI [49]: > 100 µM
